Literature values, collected in publication PMC4962924 (Chemistry (Weinheim an der Bergstrasse, Germany), 2016).

System: Hsp90
Settings: natural product C-terminal inhibitors; ref [25],[26]

Structure (SMILES) | IC50 [µM]
CO[C@H]1[C@H](OC(=O)c2ccc(C)[nH]2)[C@H](O)[C@@H](Oc2ccc3c(O)c(NC(=O)c4c[nH]c(C(=O)Nc5c(O)c6ccc(O[C@H]7OC(C)(C)[C@@H](OC)[C@H](OC(=O)c8ccc(C)[nH]8)[C@@H]7O)c(C)c6oc5=O)c4C)c(=O)oc3c2C)OC1(C)C [coumermycin A1] | 70
